Series [1] has as its system rat. The note with it: Prenatal developmental toxicity study, sprague dawley, Oral, Gavage/Intubation, dose end: 17 GD.
The subject of series [2] is rabbit. The following applies: Prenatal developmental toxicity study, new zealand white, Oral, Gavage/Intubation, dose end: 18 GD.
In series [3] the test system is rat. The following applies: Combined chronic toxicity/carcinogenicity, fischer, Oral, Feed, dose end: 104 week.
In the next series the test system is dog. The note with it: Chronic toxicity, beagle, Oral, Feed, dose end: 24 month.
In series [4] the test system is rat. The following applies: Subchronic oral toxicity in rodents, sprague dawley, Feed, dose end: 6 month.
Series [5] relates to rat. The note with it: Multigenerational reproductive toxicity study, wistar, Oral, Feed, dose end: 2 generation.
Series [6] deals with rabbit. The following applies: Prenatal developmental toxicity study, himalayan, Oral, Gavage/Intubation, dose end: 28 GD.
Series [7] deals with rat. The following applies: Multigenerational reproductive toxicity study, sprague dawley, Oral, Feed, dose end: 2 generation.
Series [8] has as its system rat. The following applies: Prenatal developmental toxicity study, sprague dawley, Oral, Gavage/Intubation, dose end: 20 GD.
Series [9] relates to rabbit. The following applies: Prenatal developmental toxicity study, new zealand white, Oral, Water, dose end: 19 GD.
Series [10] deals with rabbit. The note with it: Prenatal developmental toxicity study, himalayan, Oral, Gavage/Intubation, dose end: 28 GD. This is another data set of the same source.
In series [11] the test system is rat. The note with it: Prenatal developmental toxicity study, wistar, Oral, Gavage/Intubation, dose end: 19 GD.
For series [12], the system named is rat. The following applies: Multigenerational reproductive toxicity study, wistar, Oral, Feed, dose end: 2 generation. The source holds these as a separate data set.
Where [13] appears, read: group: developmental, developmental / developmental malformation / bone / incomplete ossification + systemic / in life observation / body weight / fetal weight.
Setting [14] is: group: maternal, systemic / in life observation / body weight / body weight gain + systemic / in life observation / clinical signs / alopecia + systemic / in….
The mark [15] stands for this setting: group: developmental, developmental / developmental malformation / bone / incomplete ossification + developmental / developmental malformation / bone / short + ….
Setting [16] is: group: maternal, reproductive / reproductive performance / resorptions / resorptions + systemic / in life observation / body weight / body weight + systemic….
Setting [17] is: group: cholinesterase, cholinesterase / cholinesterase / cholinesterase / brain cholinesterase (che) + cholinesterase / cholinesterase / cholinesterase / plasma ….
Setting [18] is: group: cholinesterase, cholinesterase / cholinesterase / cholinesterase / plasma cholinesterase (che).
Where [19] appears, read: group: systemic, systemic / clinical chemistry / cholesterol / cholesterol + systemic / hematology / erythrocyte (rbc) count differential / erythrocyte (rbc….
Where [20] appears, read: group: cholinesterase, cholinesterase / cholinesterase / cholinesterase / erythrocyte cholinesterase (che).
[21] abbreviates: group: systemic, systemic / organ weight / liver / absolute + systemic / organ weight / liver / relative to body weight.
Setting [22] is: group: cholinesterase, cholinesterase / cholinesterase / cholinesterase / erythrocyte cholinesterase (che) + cholinesterase / cholinesterase / cholinesterase / ….
The mark [23] stands for this setting: group: systemic, systemic / clinical chemistry / alanine aminotransferase (alt/sgpt) / alanine aminotransferase (alt/sgpt).
Where [24] appears, read: group: maternal, reproductive / reproductive performance / fertility / fertility + reproductive / reproductive performance / precoital interval / precoital ….
Setting [25] is: group: offspring, developmental / offspring survival late / viability index / viability index.
The mark [26] stands for this setting: group: offspring, developmental / offspring survival late / viability index / viability index + reproductive / offspring survival early / dead fetuses / dead ….
[27] abbreviates: group: parental, systemic / in life observation / body weight / body weight + systemic / in life observation / body weight / body weight gain + systemic / in….
The mark [28] stands for this setting: group: reproductive, reproductive / reproductive performance / gestational length / gestational length + reproductive / reproductive performance / gestation ….
Where [29] appears, read: group: developmental, developmental / developmental malformation / general / crown-rump length + systemic / in life observation / body weight / fetal weight.
Setting [30] is: group: maternal, reproductive / reproductive performance / premature delivery / premature delivery + systemic / in life observation / body weight / body ….
The mark [31] stands for this setting: group: offspring, systemic / in life observation / body weight / offspring (pup) weight + systemic / in life observation / body weight / offspring (pup) ….
Where [32] appears, read: group: parental, systemic / organ weight / kidney / absolute + systemic / organ weight / kidney / relative to body weight + systemic / pathology microscopic….
Where [33] appears, read: group: developmental, developmental / developmental malformation / bone / [other] + developmental / developmental malformation / bone / delayed ossification + ….
[34] abbreviates: group: maternal, systemic / in life observation / body weight / body weight gain.
[35] abbreviates: group: developmental, developmental / developmental malformation / other / other + systemic / in life observation / body weight / fetal weight.
Setting [36] is: group: maternal, systemic / in life observation / clinical signs / defecation + systemic / in life observation / food consumption / food consumption + ….
[37] abbreviates: group: developmental, developmental / developmental malformation / liver / [other].
Where [38] appears, read: group: maternal, reproductive / reproductive performance / aborted / aborted + systemic / in life observation / body weight / body weight gain + systemic / ….
The mark [39] stands for this setting: group: developmental, developmental / developmental malformation / aortic arch / narrowed + developmental / developmental malformation / bone / [other] + ….
The mark [40] stands for this setting: group: developmental, developmental / developmental malformation / bone / incomplete ossification + developmental / developmental malformation / bone / wavy + ….
The mark [41] stands for this setting: group: maternal, systemic / in life observation / body weight / body weight + systemic / in life observation / body weight / body weight gain + systemic / in….
Where [42] appears, read: group: parental, systemic / in life observation / body weight / body weight gain.

SMILES strings stand for the structures.

As for `Cc1cccc(C)c1NC(=O)c1ccc(N)cc1` [Ameltolide], the LEL with rat [1] (setting [13]) amounted to 50 mg/kg/day; in the series with rat [1] (setting [14]) it was 50 mg/kg/day; in the series on rabbit [2] (setting [15]), 100 mg/kg/day; with rabbit [2] (setting [16]) it was 100 mg/kg/day. In addition, the LOAEL (usually the lowest dose or exposure tested at which an adverse effect was seen) in the series with rat [1] (setting [13]) was over 50 mg/kg/day; in the series on rat [1] (setting [14]), over 50 mg/kg/day; with rabbit [2] (setting [15]), over 100 mg/kg/day; in the series on rabbit [2] (setting [16]) it was over 100 mg/kg/day. Further, the NEL in the series on rat [1] (setting [13]) was 25 mg/kg/day; in the series with rat [1] (setting [14]), 25 mg/kg/day; in the series on rabbit [2] (setting [15]), 50 mg/kg/day; with rabbit [2] (setting [16]) it was 50 mg/kg/day. In addition, the NOAEL (commonly the highest dose or exposure tested at which no adverse effect was seen) was at least 50 mg/kg/day in the series with rat [1] (setting [13]), at least 50 mg/kg/day with rat [1] (setting [14]), at least 100 mg/kg/day with rabbit [2] (setting [15]) and at least 100 mg/kg/day in the series on rabbit [2] (setting [16]).
Consider `CCOP(=S)(OCC)Oc1nc(Cl)c(Cl)cc1Cl` [Chlorpyrifos], for which the LOAEL in the series with rat [3] (setting [17]) is 1 mg/kg/day; in the series on rat [3] (setting [19]) it was over 10 mg/kg/day; in the series with dog (setting [18]) it was 0.03 mg/kg/day; in the series with dog (setting [21]), over 3 mg/kg/day; with rat [4] (setting [22]), 0.75 mg/kg/day; in the series on rat [4] (setting [23]), over 0.75 mg/kg/day. The NEL was 0.05 mg/kg/day with rat [3] (setting [17]); 0.1 mg/kg/day in the series on rat [3] (group: systemic, systemic / clinical chemistry / cholesterol / cholesterol + systemic / in life observation / body weight / body weight + systemic / …); under 0.01 mg/kg/day in the series on dog (setting [20]); 1 mg/kg/day in the series with dog (setting [21]); 0.15 mg/kg/day with rat [4] (setting [22]); 0.03 mg/kg/day in the series with rat [4] (setting [23]). In addition, the NOAEL in the series on rat [3] (setting [17]) was 0.1 mg/kg/day; in the series with rat [3] (setting [19]), at least 10 mg/kg/day; with dog (group: cholinesterase, cholinesterase / cholinesterase / cholinesterase / plasma cholinesterase (che) + cholinesterase / cholinesterase / cholinesterase / …), 0.01 mg/kg/day; in the series on dog (setting [21]), at least 3 mg/kg/day; in the series with rat [4] (setting [22]), 0.15 mg/kg/day; with rat [4] (setting [23]), at least 0.75 mg/kg/day. Besides, the LEL in the series with rat [3] (setting [18]) amounted to 0.1 mg/kg/day; in the series on rat [3] (group: systemic, systemic / clinical chemistry / cholesterol / cholesterol + systemic / clinical chemistry / alkaline phosphatase (alp/alk) / alkaline …), 1 mg/kg/day; in the series with dog (setting [20]), 0.01 mg/kg/day; in the series on dog (setting [21]) it was 3 mg/kg/day; in the series with rat [4] (setting [22]), 0.75 mg/kg/day; in the series with rat [4] (setting [23]), 0.15 mg/kg/day.
`Fc1ccc([C@@]2(Cn3cncn3)O[C@@H]2c2ccccc2Cl)cc1` [Epoxiconazole]: the LEL in the series on rat [5] (setting [24]) was 22.1 mg/kg/day; in the series with rat [5] (setting [25]), 0.85 mg/kg/day; with rat [5] (setting [27]), 22.1 mg/kg/day; with rat [5] (setting [28]), 31.9 mg/kg/day. The LOAEL was determined as 22.1 mg/kg/day in the series with rat [5] (setting [24]), 22.1 mg/kg/day in the series on rat [5] (setting [26]), 22.1 mg/kg/day with rat [5] (setting [27]) and 31.9 mg/kg/day with rat [5] (setting [28]). Moreover, the NEL in the series with rat [5] (setting [24]) was 2.17 mg/kg/day; in the series on rat [5] (setting [25]), under 0.85 mg/kg/day; in the series on rat [5] (setting [27]) it was 2.17 mg/kg/day; in the series with rat [5] (setting [28]), 2.41 mg/kg/day. Besides, the NOAEL in the series on rat [5] (setting [24]) stood at 2.17 mg/kg/day; in the series on rat [5] (setting [26]), 2.17 mg/kg/day; in the series with rat [5] (setting [27]) it was 2.17 mg/kg/day; with rat [5] (setting [28]) it was 2.41 mg/kg/day.
With `O=C(NCc1ncc(C(F)(F)F)cc1Cl)c1c(Cl)cccc1Cl` [Fluopicolide], the LEL in the series on rabbit [6] (setting [29]) stood at 60 mg/kg/day; with rabbit [6] (setting [30]) it was 60 mg/kg/day; in the series with rat [7] (setting [31]), 180 mg/kg/day; in the series on rat [7] (setting [32]), 145 mg/kg/day; in the series with rat [8] (setting [33]) it was 700 mg/kg/day; with rat [8] (setting [34]) it was 700 mg/kg/day. The LOAEL with rabbit [6] (setting [29]) was 60 mg/kg/day; in the series with rabbit [6] (setting [30]), 60 mg/kg/day; in the series on rat [7] (setting [31]), 180 mg/kg/day; in the series with rat [7] (setting [32]) it was 145 mg/kg/day; with rat [8] (setting [33]) it was 700 mg/kg/day; in the series with rat [8] (setting [34]), 700 mg/kg/day. In addition, the NEL was found to be 20 mg/kg/day with rabbit [6] (setting [29]); 20 mg/kg/day in the series with rabbit [6] (setting [30]); 43.7 mg/kg/day in the series on rat [7] (setting [31]); 36.4 mg/kg/day in the series on rat [7] (setting [32]); 60 mg/kg/day in the series with rat [8] (setting [33]); 60 mg/kg/day in the series with rat [8] (setting [34]). Also, the NOAEL was determined as 20 mg/kg/day in the series on rabbit [6] (setting [29]); 20 mg/kg/day in the series with rabbit [6] (setting [30]); 43.7 mg/kg/day in the series on rat [7] (setting [31]); 36.4 mg/kg/day in the series on rat [7] (setting [32]); 60 mg/kg/day in the series with rat [8] (setting [33]); 60 mg/kg/day in the series on rat [8] (setting [34]).
Consider `[Na+].[O-][Cl+][O-]` [Sodium chlorite], for which, in the series with rabbit [9] (setting [35]), the LEL was 35.5 mg/kg/day, the LOAEL was 35.5 mg/kg/day, the NEL worked out at 13 mg/kg/day and the NOAEL came to 13 mg/kg/day. Further, in the series on rabbit [9] (setting [36]), the LEL is 35.5 mg/kg/day, the LOAEL was 35.5 mg/kg/day, the NEL came out at 13 mg/kg/day and the NOAEL is 13 mg/kg/day.
`CCOC(=O)OC1=C(c2cc(C)ccc2C)C(=O)NC12CCC(OC)CC2` (configuration not stated) [Spirotetramat]: the LEL in the series with rabbit [10] (setting [37]) turned out to be 160 mg/kg/day; in the series on rabbit [10] (setting [38]), 40 mg/kg/day; in the series with rat [11] (setting [40]), 20 mg/kg/day; in the series on rat [11] (group: maternal, systemic / in life observation / body weight / body weight), 140 mg/kg/day; in the series on rat [12] (group: offspring, systemic / in life observation / body weight / offspring (pup) weight gain) it was 79.5 mg/kg/day; in the series on rat [12] (setting [42]) it was 419 mg/kg/day. Moreover, the LOAEL with rabbit [10] (setting [37]) was over 160 mg/kg/day; in the series with rabbit [10] (setting [38]) it was 40 mg/kg/day; with rat [11] (setting [39]), 1000 mg/kg/day; with rat [11] (setting [41]), 1000 mg/kg/day; in the series on rat [12] (setting [31]), 487 mg/kg/day; in the series on rat [12] (setting [42]) it was 419 mg/kg/day. For the same compound, the NEL with rabbit [10] (setting [37]) is 40 mg/kg/day; in the series with rabbit [10] (setting [38]), 10 mg/kg/day; in the series with rat [11] (setting [40]), under 20 mg/kg/day; with rat [11] (setting [41]) it was 20 mg/kg/day; in the series with rat [12] (setting [31]), 19.3 mg/kg/day; in the series with rat [12] (setting [42]) it was 70.7 mg/kg/day. Besides, the NOAEL in the series on rabbit [10] (setting [37]) was at least 160 mg/kg/day; with rabbit [10] (setting [38]), 10 mg/kg/day; in the series on rat [11] (setting [39]) it was 140 mg/kg/day; in the series on rat [11] (setting [41]), 140 mg/kg/day; in the series with rat [12] (setting [31]), 79.5 mg/kg/day; in the series on rat [12] (setting [42]) it was 70.7 mg/kg/day.

The values are drawn from EPA's ToxRefDB 2.
